The source of these data is patent US9926321B2, “Hsp90 inhibitors” (Sloan-Kettering Institute for Cancer Research, priority 2011, dated 2018).

One assay concerns Hsp90 (SKBr3 lysate). The assay is described as follows: Hsp90 binding assay (fluorescence polarization, cy3B-GM displacement), human cancer cell lysate. The settings on record: lysate not given. As for the experimental part:
(§1) For the binding studies, fluorescence polarization (FP) assays w-re performed similarly as was previously reported [Du et al. (2007) “High-throughput screening fluorescence polarization assay for tumor-specific Hsp90” J. Biomol. Screen 12:915-924]. Briefly, FP measurements were performed on an Analyst GT instrument (Molecular Devices, Sunnyvale, Calif.). Measurements were taken in black 96-well microtiter plates (Corning #3650) where both the excitation and the emission occurred from the top of the well. A stock of 10 μM cy3B-GM was prepared in DMSO and diluted with HFB buffer (20 mM Hepes (K), pH 7.3, 50 mM KCl, 2 mM DTT, 5 mM MgCl2, 20 mM Na2MoO4, and 0.01% NP40 with 0.1 mg/mL BGG). The test compounds were dissolved in DMSO and added at several concentrations to the HFB assay buffer containing both 6 nM cy3B-GM and transgenic mouse brain lysate (6 μg JNPL3 lysate) or human cancer cell lysate (3 μg SKBr3 lysate) in a final volume of 100 μL. Drugs were added to triplicate wells. Free cy3B-GM (6 nM cy3B-GM), bound cy3B-GM (6 nM cy3B-GM+lysate, as indicated above) and buffer only containing wells (background) were included as controls in each plate. Plates were incubated on a shake at 4° C., and polarization values measured at 24 h. Percentage inhibition was calculated as follows: (% Control)=100−((mPc−mPf)/(mPb−mPf))×100, where mPc is the recorded mP from compound wells, mPf is the average recorded mP from cy3B-GM-only wells, and mPb is the average recorded mP from wells containing both cy3B-GM and lysate, and plotted against values of competitor concentrations. The inhibitor concentration at which 50% of bound cy3B-GM was displaced was obtained by fitting the data using a nonlinear regression analysis as implemented in Prism 4.0 (GraphPad Software).
In general terms: In fluorescence polarisation assays a small probe gives low polarisation when free and higher when bound to something large.

For another assay, the system named is Hsp90. Described as above. The settings on record: fluorescence polarization, cy3B-GM displacement; the table does not say which lysate (SKBr3 or JNPL3). As for the experimental part:
as §1

A further assay deals with T1, hERG (Homo sapiens, UniProt Q12809).
T1 construct: purchased Invitrogen PV5365
T1 sequence (Q12809 whole entry): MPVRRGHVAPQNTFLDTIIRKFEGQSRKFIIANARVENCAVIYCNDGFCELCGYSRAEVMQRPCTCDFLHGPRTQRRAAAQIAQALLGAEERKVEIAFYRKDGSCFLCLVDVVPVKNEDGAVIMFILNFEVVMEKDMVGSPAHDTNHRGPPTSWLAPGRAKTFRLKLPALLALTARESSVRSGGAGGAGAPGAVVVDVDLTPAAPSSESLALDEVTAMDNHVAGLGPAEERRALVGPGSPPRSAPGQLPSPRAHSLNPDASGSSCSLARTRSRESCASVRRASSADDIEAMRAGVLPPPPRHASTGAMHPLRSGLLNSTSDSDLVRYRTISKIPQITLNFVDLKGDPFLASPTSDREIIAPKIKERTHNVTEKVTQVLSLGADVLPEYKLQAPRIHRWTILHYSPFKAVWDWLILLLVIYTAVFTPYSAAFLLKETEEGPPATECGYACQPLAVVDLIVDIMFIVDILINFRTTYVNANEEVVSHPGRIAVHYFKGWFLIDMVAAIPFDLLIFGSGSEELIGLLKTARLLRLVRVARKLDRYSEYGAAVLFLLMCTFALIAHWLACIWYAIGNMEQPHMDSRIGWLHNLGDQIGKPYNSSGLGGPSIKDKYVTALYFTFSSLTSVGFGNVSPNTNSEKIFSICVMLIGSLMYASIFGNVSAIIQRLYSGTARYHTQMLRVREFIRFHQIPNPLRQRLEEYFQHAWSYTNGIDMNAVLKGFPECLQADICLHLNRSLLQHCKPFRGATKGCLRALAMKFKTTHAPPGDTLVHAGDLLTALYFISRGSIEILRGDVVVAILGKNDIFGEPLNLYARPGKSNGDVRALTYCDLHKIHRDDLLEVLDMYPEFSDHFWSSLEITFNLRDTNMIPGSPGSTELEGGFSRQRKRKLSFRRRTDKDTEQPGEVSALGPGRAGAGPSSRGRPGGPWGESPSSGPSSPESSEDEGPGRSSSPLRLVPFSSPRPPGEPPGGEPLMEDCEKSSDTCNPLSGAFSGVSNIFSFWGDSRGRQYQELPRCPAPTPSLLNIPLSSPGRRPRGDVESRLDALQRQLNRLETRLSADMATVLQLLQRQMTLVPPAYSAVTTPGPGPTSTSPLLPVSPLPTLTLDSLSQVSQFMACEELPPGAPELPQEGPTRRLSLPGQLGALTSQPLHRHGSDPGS
The assay is described as follows: hERG fluorescence polarization assay (Predictor hERG kit). The settings on record: Predictor hERG fluorescence polarization, displacement of tracer red, read after 4 hrs; read-out: hERG assay. It counts as binding. As for the experimental part:
hERG Fluorescence Polarization Assay:
Following the manufacturer's protocol, the hERG assay was performed using Predictor hERG Fluorescence Polarization Assay kit (catalog no. PV5365) from Invitrogen. Briefly, FP measurements were performed on an Analyst GT instrument (Molecular Devices, Sunnyvale, Calif.). Measurements were taken in black 384-well plates (Corning #3677), where both the excitation and the emission occurred from the top of the well. The test compounds were dissolved in DMSO and added at several concentrations to the Predictor hERG FP assay buffer containing 4 nM Predictor hERG tracer red and 10 μL of Predictor hERG membrane in a final volume of 20 μL. Drugs were added to triplicate wells. E-4031 as positive control was included in each plate. Plates were then kept on a shaker at room temperature and polarization values were measured after 4 hrs. The inhibition concentration at which 50% of tracer red gets displaced was obtained by fitting the data using a nonlinear regression analysis as implemented in Prism 5.0 (GraphPad Software).

pIC50: −log10 of the molar value.

`Nc1nc(F)nc2c1nc(Cc1cc3c(cc1I)OCO3)n2CCCNC(=O)C1CC1` [Compound 4A-45, Cyclopropanecarboxylic acid {3-[6-amino-2-fluoro-8-(6-iodo-benzo[1,3]dioxol-5-ylmethyl)-purin-9-yl]-propyl}-amide]: in the assay with Hsp90 (SKBr3 lysate), the “Hsp90 binding affinity (in words, referring to Table 12)” value (“Hsp90 binding affinity” for short) is “high level of binding affinity”. In addition, the pIC50 was 7.70 with Hsp90 and under 4.00 on hERG.

As to `CC(C)NS(=O)(=O)CCCn1c(Sc2cc3c(cc2I)OCO3)nc2c(N)ncnc21` [Compound 1A-15, 3-[6-Amino-8-(6-iodo-benzo[1,3]dioxol-5-ylsulfanyl)-purin-9-yl]-propane-1-sulfonic acid isopropylamide], the “Hsp90 binding affinity” value in the assay with Hsp90 (SKBr3 lysate) is “high level of binding affinity”. For the same molecule, the results for the pIC50 in the assay on Hsp90 and on hERG were 7.69 and under 4.00, respectively.

For `C#Cc1cc2c(cc1Sc1nc3c(N)ncnc3n1CCCNS(=O)(=O)C1CC1)OCO2` [Compound 1B-28, Cyclopropanesulfonic acid {3-[6-amino-8-(6-ethynyl-benzo[1,3]dioxol-5-ylsulfanyl)-purin-9-yl]-propyl}-amide], the “Hsp90 binding affinity” value with Hsp90 (SKBr3 lysate) is recorded as “high level of binding affinity”. For the same molecule, the pIC50 in the assay on Hsp90 is 7.28; at hERG, under 4.00.

With `C#Cc1cc2c(cc1Sc1nc3c(N)ncnc3n1CCCNC(=O)C1CC1)OCO2` [Compound 1B-45, Cyclopropanecarboxylic acid {3-(6-amino-8-(6-ethynyl-benzo[1,3]dioxol-5-ylsulfanyl)-purin-9-yl]-propyl}-amide], the “Hsp90 binding affinity” value in the assay on Hsp90 (SKBr3 lysate) is reported as “high level of binding affinity”. Besides, the pIC50 was 7.43 with Hsp90 and under 4.00 at hERG.

In the case of `CC(C)(C)C(=O)NCCCn1c(Cc2cc3c(cc2I)OCO3)nc2c(N)nc(F)nc21` [Compound 4A-43, N-{3-[6-Amino-2-fluoro-8-(6-iodo-benzo[1,3]dioxol-5-ylmethyl)-purin-9-yl]-propyl}-2,2-dimethyl-propionamide], the “Hsp90 binding affinity” value in the assay with Hsp90 (SKBr3 lysate) is recorded as “high level of binding affinity”. Further, the values for the pIC50 in the assay with Hsp90 and at hERG were 7.48 and under 4.00, respectively.

Regarding `CC(C)S(=O)(=O)NCCCn1c(Sc2cc3c(cc2I)OCO3)nc2c(N)ncnc21` [Compound 1A-22, Propane-2-sulfonic acid {3-[6-amino-8-(6-iodo-benzo[1,3]dioxol-5-ylsulfanyl)-purin-9-yl]-propyl}-amide], the “Hsp90 binding affinity” value in the assay on Hsp90 (SKBr3 lysate) is listed as “high level of binding affinity”. In addition, the values for the pIC50 in the assay with Hsp90 and on hERG were 7.33 and under 4.00, respectively.

Regarding `Nc1nc(F)nc2c1nc(Cc1cc3c(cc1I)OCO3)n2CCCNS(=O)(=O)C1CC1` [Compound 4A-28, N-(3-(6-amino-2-fluoro-8-((6-iodobenzo[d][1,3]dioxol-5-yl)methyl)-9H-purin-9-yl)propyl)cyclopropane-sulfonamide], the “Hsp90 binding affinity” value in the assay on Hsp90 (SKBr3 lysate) is on record as “high level of binding affinity”. Moreover, the results for the pIC50 with Hsp90 and at hERG were 7.62 and under 4.00, respectively.

For the molecule `CN(C)c1cc2c(cc1Sc1nc3c(N)ncnc3n1CCCNC(=O)C1CC1)OCO2` [Compound 1G-45, Cyclopropanecarboxylic acid {3-[6-amino-8-(6-dimethylamino-benzo[1,3]dioxol-5-ylsulfanyl)-purin-9-yl]-propyl}-amide], the “Hsp90 binding affinity” value with Hsp90 (SKBr3 lysate) was “high level of binding affinity”. Also, the pIC50 in the assay on Hsp90 was 7.82; at hERG, 4.12.
